Data on 18 molecules can be found in US8927560B2, “4-Aza-2, 3-didehydropodophyllotoxin compounds and process for the preparation thereof” (Council of Scientific & Industrial Research, priority 2010, dated 2015).

A value given as a limit tells only on which side of the number the result lay.

One series relates to MCF7. Put plainly: SRB in vitro cytotoxicity assay, MCF7 breast cancer cells. It counts as cell-based. The note with it: Homo sapiens, 48 h drug exposure, read-out: In vitro anticancer activity GI50, Breast MCF7. From the text:
(§1) Compounds 4a-4z and 4aa-4ae have been evaluated for their in vitro cytotoxicity in selected human cancer cell lines i.e., colon (Colo205), lung (Hop-62, A549), cervix (SiHa), prostate (PC3), oral (KB, DWD, Gurav), Ovarian (A-2780) and breast (MCF7, Zr-75-1) origin by employing the sulforhodamine B (SRB) assay method (Skehn, P.; Storeng, R.; Scudiero, A.; Monks, J.; MeMohan, D.; Vistica, D.; Jonathan, T. W.; Bokesch, H.; Kenney, S.; Boyd M. R. J. Natl. Cancer Inst. 1990, 82, 1107).
(§2) The synthesized compounds have been evaluated for their in vitro cytotoxicity in human cancer cell lines. A protocol of 48 h continuous drug exposure has been used and a sulforhodamine B (SRB) protein assay has been used to estimate cell viability or growth. The cell lines were grown in DMEM medium containing 10% fetal bovine serum and 2 mM L-glutamine and were inoculated into 96 well microtiter plates in […] at plating densities depending on the doubling time of individual cell lines. The microliter plates were incubated at 37_C, 5% CO2, 95% air, and 100% relative humidity for 24 h prior to addition of experimental drugs. Aliquots of […] of the drug dilutions were added to the appropriate microliter wells already containing […] of cells, suiting in the required final drug concentrations. For each compound four concentrations (0.1, 1, 10 and 100 uM) were evaluated and each was done in triplicate wells. Plates were incubated further for 48 h and assay was terminated by the addition of […] of cold trichloro acetic acid (TCA) (final concentration, 10% TCA) and incubated for 60 min at 4_C. The plates were washed five times with tap water and airdried. Sulforhodamine B (SRB) solution ([…]) at 0.4% (w/v) in 1% acetic acid was added to each of the cells, and plates were incubated for 20 min at room temperature. The residual dye was removed by washing five times with 1% acetic acid. The plates were airdried. Bound stain was subsequently eluted with 10 mM trizma base, and the absorbance was read on an ELISA plate reader at a wavelength of 540 nm with 690 nm reference wavelengths. Percent growth was calculated on a plate by plate basis for test wells relative to control wells. The above determinations were repeated three times. Percentage growth was expressed as the (ratio of average absorbance of the test well to the average absorbance of the control wells)*100. Growth inhibition of 50% (GI50) was calculated from [(Ti−Tz)/(C−Tz)]*100 ¼ 50, which is the drug concentration resulting in a 50% reduction in the net protein increase (as measured by SRB staining) in control cells during the drug incubation. Where, Tz ¼ Optical density at time zero, OD of control ¼ C, and OD of test growth in the presence of drug ¼ Ti.

For a further series, the system named is A-549. Put plainly: SRB in vitro cytotoxicity assay, A-549 lung cancer cells. In kind it is cell-based. To be noted: Homo sapiens, A549, 48 h drug exposure, read-out: In vitro anticancer activity GI50, Lung A-549.
Text: as §1, §2

Another series concerns KB. Put plainly: SRB in vitro cytotoxicity assay, KB oral cancer cells. It counts as cell-based. The note with it: Homo sapiens, 48 h drug exposure, read-out: In vitro anticancer activity GI50, Oral KB.
Text: as §1, §2

The test system of the next series is Hop62. Description: SRB in vitro cytotoxicity assay, Hop62 lung cancer cells. It counts as cell-based. The note with it: Homo sapiens, HOP-62, 48 h drug exposure, read-out: In vitro anticancer activity GI50, Lung Hop62.
Text: as §1, §2

A further series concerns Gurav. Put plainly: SRB in vitro cytotoxicity assay, Gurav oral cancer cells. It counts as cell-based. To be noted: Homo sapiens, 48 h drug exposure, read-out: In vitro anticancer activity GI50, Oral Gurav.
Text: as §1, §2

The subject of the next series is DWD. Description: SRB in vitro cytotoxicity assay, DWD oral cancer cells. It counts as cell-based. The note with it: Homo sapiens, 48 h drug exposure, read-out: In vitro anticancer activity GI50, Oral DWD.
Text: as §1, §2

Another series has as its system A-2780. Put plainly: SRB in vitro cytotoxicity assay, A-2780 ovarian cancer cells. In kind it is cell-based. The note with it: Homo sapiens, A2780, 48 h drug exposure, read-out: In vitro anticancer activity GI50, Ovarian A-2780.
Text: as §1, §2

The next series concerns Zr-75-1. Put plainly: SRB in vitro cytotoxicity assay, Zr-75-1 breast cancer cells. In kind it is cell-based. The note with it: Homo sapiens, 48 h drug exposure, read-out: In vitro anticancer activity GI50, Breast Zr-75-1.
Text: as §1, §2

In the next series the test system is Colo 205. Description: SRB in vitro cytotoxicity assay, Colo 205 colon cancer cells. In kind it is cell-based. To be noted: Homo sapiens, 48 h drug exposure, read-out: In vitro anticancer activity GI50, Colon Colo 205.
Text: as §1, §2

For orientation: GI50 means the concentration that inhibits growth by half. As usually defined, the melting point is the temperature, or range, at which the solid turns liquid. In turn, `COc1ccc(C2C3=C(COC3=O)Nc3ccc4nn[nH]c4c32)c(F)c1` (stereo not drawn) [Compound 4z, 10-(2-fluoro-4-methoxyphenyl)-6,7,9,10-tetrahydro-1H-furo[3,4-b][1,2,3]triazolo[4,5-f]quinolin-9-one] gave a melting point of 308 to 310 °C. For the same molecule, in the series with MCF7, the GI50 is less than 100 nM.
For `COc1ccc(C2C3=C(COC3=O)Nc3ccc4nc(S)[nH]c4c32)cc1O` (stereo not drawn) [Compound 4x, 10-(3-hydroxy-4-methoxyphenyl)-2-sulfanyl-6,7,9,10-tetrahydro-1H-furo[3,4-b]imidazo[4,5-f]quinolin-9-one], the melting point was 334 to 337 °C. Also, in the series on MCF7, the 50% growth inhibitory concentration (GI50) turned out to be 2700 nM.
The molecule `COc1cc(C2C3=C(COC3=O)Nc3c2cc(OC)c(OC)c3OC)ccc1O` (stereo not drawn) [Compound 4ae, 9-(4-hydroxy-3-methoxyphenyl)-5,6,7-trimethoxy-1,3,4,9-tetrahydrofuro[3,4-b]quinolin-1-one] gave a melting point of 290 to 291 °C. In the series with MCF7, the GI50 is 2900 nM.
On to `COc1nc2c(c(OC)n1)C(c1ccc(F)c(OC)c1)C1=C(COC1=O)N2` (stereo not drawn) [Compound 4d, 5-(4-fluoro-3-methoxyphenyl)-2,4-dimethoxy-5,6,8,9-tetrahydrofuro[3′,4′:5,6]pyrido[2,3-d]pyrimidin-6-one], for which the melting point was in the range of 267 to 270 °C. Also, the GI50 in the series with A-549 stood at 2600 nM. Further, the GI50 in the series on KB was 2200 nM.
The molecule `COc1nc2c(c(OC)n1)C(c1ccc(OC)c(O)c1)C1=C(COC1=O)N2` (stereo not drawn) [Compound 4c, 5-(3-hydroxy-4-methoxyphenyl)-2,4-dimethoxy-5,6,8,9-tetrahydrofuro[3′,4′:5,6]pyrido[2,3-d]pyrimidin-6-one] gave a melting point of 284 to 285 °C. Moreover, the GI50 in the series on Hop62 is 2800 nM.
Take `COc1cc(C2C3=C(COC3=O)Nc3ccc4cc(C)[nH]c4c32)ccc1F` (stereo not drawn) [Compound 4l, 10-(4-fluoro-3-methoxyphenyl)-2-methyl-6,7,9,10-tetrahydro-1H-furo[3,4-b]pyrrolo[2,3-f]quinolin-9-one]: the melting point lay within 198 to 199 °C. Moreover, in the series with MCF7, the 50% growth inhibitory concentration (GI50) was 2600 nM. For the same molecule, the GI50 in the series with Gurav was found to be 2500 nM. Also, the GI50 in the series on DWD was found to be 2100 nM. Also, the GI50 with A-2780 amounted to 2400 nM. In addition, in the series with Hop62, the GI50 turned out to be 2400 nM.
Regarding `COc1cc(C2C3=C(COC3=O)Nc3ccc4nc(C)sc4c32)ccc1[N+](=O)[O-]` (stereo not drawn) [Compound 4w, 10-(3-methoxy-4-nitrophenyl)-2-methyl-6,7,9,10-tetrahydrofuro[3,4-b][1,3]thiazolo[5,4-f]quinolin-9-one], the melting point fell in the range of 190 to 191 °C. Also, the GI50 with MCF7 came out at 150 nM.
`COc1cc(C2C3=C(COC3=O)Nc3ccc4cc[nH]c4c32)cc(OC)c1OC` (stereo not drawn) [Compound 4e, 10-(3,4,5-trimethoxyphenyl)-6,7,9,10-tetrahydro-1H-furo[3,4-b]pyrrolo[2,3-f]quinolin-9-one] displayed a melting point of 299 to 301 °C. Also, in the series on Zr-75-1, the GI50 turned out to be 2800 nM. In the series with Colo 205, the GI50 came to 2300 nM. In addition, the GI50 in the series with A-549 was 2400 nM. Moreover, the GI50 in the series with KB worked out at 2000 nM. Moreover, in the series on DWD, the GI50 was 2800 nM. Besides, the GI50 with A-2780 came out at 2700 nM.
Consider `COc1cc(C2C3=C(COC3=O)Nc3ccc4cc[nH]c4c32)ccc1O` (stereo not drawn) [Compound 4f, 10-(4-hydroxy-3-methoxyphenyl)-6,7,9,10-tetrahydro-1H-furo[3,4-b]pyrrolo[2,3-f]quinolin-9-one], for which the melting point lay in the range of 301 to 303 °C. Also, in the series on MCF7, the GI50 was found to be 2300 nM. For the same molecule, the GI50 in the series with Zr-75-1 was 2000 nM. Moreover, the GI50 with Gurav is 2600 nM. Also, the GI50 in the series on Colo 205 came out at 2500 nM. In addition, in the series on DWD, the GI50 amounted to 2400 nM.
Turning to `COc1cc(C2C3=C(COC3=O)Nc3ccc4cn[nH]c4c32)ccc1F` (stereo not drawn) [Compound 4q, 10-(4-fluoro-3-methoxyphenyl)-6,7,9,10-tetrahydro-1H-furo[3,4-b]pyrazolo[3,4-f]quinolin-9-one], the melting point lay within 307 to 309 °C. In addition, in the series on MCF7, the GI50 was found to be 2700 nM. Further, the GI50 in the series on Gurav turned out to be 2600 nM. Further, the GI50 in the series with A-549 came out at 2300 nM.
With `COc1ccc(C2C3=C(COC3=O)Nc3onc(-c4ccc(Cl)cc4)c32)cc1O` (stereo not drawn) [Compound 4ad, 3-(4-chlorophenyl)-4-(3-hydroxy-4-methoxyphenyl)-4,5,7,8-tetrahydrofuro[3′,4′:5,6]pyrido[3,2-d]isoxazol-5-one], the melting point lay within 245 to 246 °C. Besides, the GI50 in the series on KB amounted to 2700 nM.
As to `COc1nc2c(c(OC)n1)C(c1ccc(O)c(OC)c1)C1=C(COC1=O)N2` (stereo not drawn) [Compound 4b, 5-(4-hydroxy-3-methoxyphenyl)-2,4-dimethoxy-5,6,8,9-tetrahydrofuro[3′,4′:5,6]pyrido[2,3-d]pyrimidin-6-one], the melting point lay within 294 to 296 °C. Besides, the GI50 in the series with Hop62 stood at 2700 nM.
On to `COc1cc(C2C3=C(COC3=O)Nc3ccc4nn[nH]c4c32)cc(OC)c1OC` (stereo not drawn) [Compound 4y, 10-(3,4,5-trimethoxyphenyl)-6,7,9,10-tetrahydro-1H-furo[3,4-b][1,2,3]triazolo[4,5-f]quinolin-9-one], for which the melting point is 324 to 325 °C. For the same molecule, the 50% growth inhibitory concentration (GI50) in the series on KB came to 2900 nM.
The molecule `COc1ccc(-c2noc3c2C(c2cc(OC)c(OC)c(OC)c2)C2=C(COC2=O)N3)cc1` (stereo not drawn) [Compound 4aa, 3-(4-methoxyphenyl)-4-(3,4,5-trimethoxyphenyl)-4,5,7,8 tetrahydrofuro[3′,4′:5,6]pyrido[3,2-d]isoxazol-5-one] had a melting point of 218 to 219 °C. Also, the GI50 in the series on Hop62 was 2500 nM.
Consider `COc1ccc(C2C3=C(COC3=O)Nc3ccc4cc(C)[nH]c4c32)c(F)c1` (stereo not drawn) [Compound 4m, 10-(2-fluoro-4-methoxyphenyl)-2-methyl-6,7,9,10-tetrahydro-1H-furo[3,4-b]pyrrolo[2,3-f]quinolin-9-one], for which the melting point was 205 to 207 °C. Moreover, the GI50 with MCF7 is less than 100 nM.
`COc1cc(C2C3=C(COC3=O)Nc3ccc4ncsc4c32)cc(OC)c1OC` (stereo not drawn) [Compound 4s, 10-(3,4,5-trimethoxyphenyl)-6,7,9,10-tetrahydrofuro[3,4-b][1,3]thiazolo[5,4-f]quinolin-9-one] showed a melting point of 309 to 310 °C. In the series on Zr-75-1, the GI50 was found to be 2100 nM. Further, in the series on Colo 205, the 50% growth inhibitory concentration (GI50) was 2500 nM. Moreover, in the series with A-549, the GI50 was found to be 2400 nM. In addition, in the series on KB, the GI50 worked out at 2100 nM. In addition, the 50% growth inhibitory concentration (GI50) in the series on DWD is 2500 nM. Moreover, the GI50 with A-2780 turned out to be 2300 nM.
Molecule `COc1ccc(C2C3=C(COC3=O)Nc3ccc4cn[nH]c4c32)cc1O` (stereo not drawn) [Compound 4p, 10-(3-hydroxy-4-methoxyphenyl)-6,7,9,10-tetrahydro-1H-furo[3,4-b]pyrazolo[3,4-f]quinolin-9-one] showed a melting point of 243 to 245 °C. The 50% growth inhibitory concentration (GI50) in the series on Colo 205 was 2600 nM. Further, the GI50 in the series on Hop62 amounted to 2600 nM.
Turning to `COc1ccc(C2C3=C(COC3=O)Nc3ccc4cc[nH]c4c32)cc1[N+](=O)[O-]` (stereo not drawn) [Compound 4i, 10-(4-methoxy-3-nitrophenyl)-6,7,9,10-tetrahydro-1H-furo[3,4-b]pyrrolo[2,3-f]quinolin-9-one], the GI50 in the series on Colo 205 amounted to 2400 nM.
